Data taken from PMC8757611, “Synthesis, biological evaluation, and molecular docking of new series of antitumor and apoptosis inducers designed as VEGFR-2 inhibitors” (Journal of Enzyme Inhibition and Medicinal Chemistry, 2022).

Columns and labels:
MCF-7 = assay: In vitro antitumor MTT assay, MCF-7; type: cell-based, human; conditions: for IC50: Homo sapiens, MCF7, MTT, mean ± S.D. of three experiments
Description: (§1) The antitumor assay was performed against the human cancer cell lines: HepG2, PC3, and MCF-7. The chemicals used in this test were supplied by Sigma-Aldrich with high analytical grade. National Cancer Institute (Cairo, Egypt) was the supplier of the cell lines tested which originally obtained from American Type Culture Collection (ATCC). MTT protocol was applied to quantitatively measure the antiproliferative activity of the new derivatives. In this test, the colour change is attributed to that the yellow tetrazolium bromide (MTT) is converted to formazan derivative which has purple colour. This biochemical reaction occurs only in viable cells by mitochondrial succinate dehydrogenase. The tested cells were initially cultured in RPMI-1640 medium with foetal bovine serum (10%). To the incubated cell, streptomycin (100 µg/mL) and penicillin (100 units/mL) were added in a 5% CO2 incubator at 37 °C. Then seeding of the cells was performed in a 96-well plate under 5% CO2 and at density of 1.0 × 10^4 cells/well at 37 °C for 48 h. Various non-toxic concentrations of the tested candidates were added and the cells were then incubated for further 24 h to the cells treated with the new compounds, MTT solution (20 µL at 5 mg/mL) was added, followed by 4 h incubation. One hundred microlitres of Dimethyl sulfoxide (DMSO) were added into each well to dissolve the purple formazan formed which is colorimetrically absorbed at 570 nm using a plate reader (EXL 800, USA). Finally, the percentages of cell viability was obtained as (A570 of treated samples/A570 of untreated sample) × 100.

HepG2 [1] = assay: In vitro antitumor MTT assay, HepG2; type: cell-based, human; conditions: for IC50: Homo sapiens, HepG2, MTT, mean ± S.D. of three experiments
Description: as §1

PC3 = assay: In vitro antitumor MTT assay, PC3; type: cell-based, human; conditions: for IC50: Homo sapiens, PC-3, MTT, mean ± S.D. of three experiments
Description: as §1

WI-38 = assay: Cytotoxicity against normal lung fibroblasts (MTT); type: cell-based; conditions: normal human lung fibroblasts
Description: as §1
Of note, the cytotoxicity against normal human lung fibroblasts cell line (WI-38) were examined for the nine selected compounds.

VEGFR-2 kinase = molecular target: T1, VEGFR-2 kinase (Homo sapiens, UniProt P35968); assay: VEGFR-2 inhibition testing (ELISA kit); type: biochemical
T1 construct: purchased
Description: Enzyme linked immunosorbent assay (ELISA) technique was applied to human VEGFR-2 ELISA kit to calculate IC50 of all new derivatives against VEGFR-2 kinase. The antibody specific to the enzyme was planted on a 96 well microplate to which different micromolar concentrations of the positive control and the new compounds was added. […] Finally, stop solution (50 µL) was added and the reading was immediately determined at 450 nm. To get the standard curve, the concentrations used were presented on the X-axis and the corresponding absorbances were on the Y-axis.

HER2 = molecular target: T2, HER2 (Homo sapiens, UniProt P04626); assay: Multi-kinase assay (HTRF), HER2; type: biochemical
T2 construct: purchased Sigma
Description: (§2) Different kinases and ATP were obtained from Sigma. The specified kinase and its substrate was incubated with compound for 5 min in buffer solution to start the enzymatic reaction; ATP was then added to the reaction mixture and was maintained for 30 min at room temperature.

P53 = assay: Apoptotic marker level in HepG2, p53; type: cell-based, human; conditions: HepG2, at IC50, 24 h; control 42.84
Description: (§3) HepG2 cells were cultured and treated with compound 15d for 24 h. after that cells were collected and washed with PBS, then were collected and lysed by adding it to the extraction buffer containing protease inhibitors (1 ml per 1 × 10^6 cells.) then the lysate was diluted immediately before the assay. Caspase-3, BAX, Bcl-2, and p53 level was measured by using Quantikine-Human active kits (R&D Systems, Inc. Minneapolis, USA) according to the manufacturer protocols.

FGFR = assay: Multi-kinase assay (HTRF), FGFR; type: biochemical
Description: as §2

[2] = test system: human cancer cell lines HepG2, PC3, MCF-7; assay: In vitro antitumor MTT assay, panel of HepG2, PC3 and MCF-7; type: cell-based; conditions: range over HepG2, PC3 and MCF-7, read-out: IC50 against human cancer cell lines
Description: as §1

HepG2 [3] = assay: Effect on apoptosis rate of HepG2 (Annexin V-FITC/PI); type: cell-based, human
Description: Apoptosis ratio of HepG2 treated with 9.6 µg of compound 15d in comparison with untreated HepG2 cells was calculated according to the reported method using Annexin V fluorescein isothiocyanate (V-FITC)/PI kit[36].

Bcl-2 = assay: Apoptotic marker level in HepG2, Bcl-2; type: cell-based, human; conditions: HepG2, at IC50, 24 h; control 5.761
Description: as §3

Caspase-3 = assay: Apoptotic marker level in HepG2, Caspase-3; type: cell-based, human; conditions: HepG2, at IC50, 24 h; control 49.6274
Description: as §3

HepG2 [4] = assay: Effect on cell cycle of HepG2 (PI flow cytometry); type: cell-based, human; conditions: at its IC50
Description: The protocol reported by Wang et al.[35] was followed to determine the effect of 15d on cell cycle of HepG2. The cancer cells (2 × 10^5 cells) were seeded and incubated in each of six-well plates for 24 h. The cells were further incubated at 37 °C and 5% CO2 after addition of foetal bovine serum (FBS, 10%). The medium was replaced by DMSO solution (1% v/v) in which 9.6 µg of compound 15d was dissolved. Well plates were then incubated for 48 h and then rinsed with cold phosphate-buffered saline (PBS), fixed with ethanol (70%) and washed again with PBS. DNA fluorochrome propidium iodide (PI) was used to stain the cells which were then kept for 15 min at 37 °C. FACS Calibre flow cytometer was used to analyse the samples.

BAX = assay: Apoptotic marker level in HepG2, BAX; type: cell-based, human; conditions: HepG2, at IC50, 24 h; control 40.62
Description: as §3

VEGFR-2 = test system: VEGFR-2; design: method as in PMID 22153662; conditions: cited from earlier work

T1 sequence (P35968 20-1356): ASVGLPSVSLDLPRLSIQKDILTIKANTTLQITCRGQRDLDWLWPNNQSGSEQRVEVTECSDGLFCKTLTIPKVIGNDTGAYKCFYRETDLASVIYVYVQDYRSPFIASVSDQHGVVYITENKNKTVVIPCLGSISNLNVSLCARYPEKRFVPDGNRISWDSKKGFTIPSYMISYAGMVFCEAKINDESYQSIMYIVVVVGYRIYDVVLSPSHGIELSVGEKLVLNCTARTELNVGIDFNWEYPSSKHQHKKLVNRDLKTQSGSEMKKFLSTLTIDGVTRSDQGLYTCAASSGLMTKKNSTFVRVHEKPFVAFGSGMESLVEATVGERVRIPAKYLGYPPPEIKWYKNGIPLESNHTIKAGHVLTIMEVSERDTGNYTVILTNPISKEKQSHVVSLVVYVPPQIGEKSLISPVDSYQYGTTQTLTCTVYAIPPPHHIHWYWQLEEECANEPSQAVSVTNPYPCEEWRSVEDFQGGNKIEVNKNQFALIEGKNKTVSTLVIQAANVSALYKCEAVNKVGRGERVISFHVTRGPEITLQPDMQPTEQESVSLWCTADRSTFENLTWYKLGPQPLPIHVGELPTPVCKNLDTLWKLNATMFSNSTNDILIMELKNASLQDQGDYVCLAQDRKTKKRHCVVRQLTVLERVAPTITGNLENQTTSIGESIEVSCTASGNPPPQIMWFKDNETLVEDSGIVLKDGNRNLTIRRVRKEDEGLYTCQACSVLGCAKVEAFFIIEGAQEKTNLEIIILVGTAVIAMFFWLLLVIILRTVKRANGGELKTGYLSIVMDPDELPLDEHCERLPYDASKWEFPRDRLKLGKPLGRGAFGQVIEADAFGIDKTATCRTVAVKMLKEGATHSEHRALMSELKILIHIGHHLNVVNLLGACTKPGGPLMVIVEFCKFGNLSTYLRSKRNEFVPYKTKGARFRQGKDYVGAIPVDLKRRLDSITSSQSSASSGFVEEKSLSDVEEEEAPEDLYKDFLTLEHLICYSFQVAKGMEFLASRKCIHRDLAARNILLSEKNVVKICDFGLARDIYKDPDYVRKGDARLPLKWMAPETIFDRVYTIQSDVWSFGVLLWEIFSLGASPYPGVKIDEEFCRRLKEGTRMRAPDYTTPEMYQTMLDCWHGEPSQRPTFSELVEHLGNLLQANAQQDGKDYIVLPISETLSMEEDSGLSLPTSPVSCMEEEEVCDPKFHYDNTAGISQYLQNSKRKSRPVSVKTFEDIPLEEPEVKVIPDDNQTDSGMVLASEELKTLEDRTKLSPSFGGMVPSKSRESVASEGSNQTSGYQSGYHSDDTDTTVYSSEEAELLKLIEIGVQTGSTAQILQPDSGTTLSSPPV
T2 sequence (P04626 23-1255): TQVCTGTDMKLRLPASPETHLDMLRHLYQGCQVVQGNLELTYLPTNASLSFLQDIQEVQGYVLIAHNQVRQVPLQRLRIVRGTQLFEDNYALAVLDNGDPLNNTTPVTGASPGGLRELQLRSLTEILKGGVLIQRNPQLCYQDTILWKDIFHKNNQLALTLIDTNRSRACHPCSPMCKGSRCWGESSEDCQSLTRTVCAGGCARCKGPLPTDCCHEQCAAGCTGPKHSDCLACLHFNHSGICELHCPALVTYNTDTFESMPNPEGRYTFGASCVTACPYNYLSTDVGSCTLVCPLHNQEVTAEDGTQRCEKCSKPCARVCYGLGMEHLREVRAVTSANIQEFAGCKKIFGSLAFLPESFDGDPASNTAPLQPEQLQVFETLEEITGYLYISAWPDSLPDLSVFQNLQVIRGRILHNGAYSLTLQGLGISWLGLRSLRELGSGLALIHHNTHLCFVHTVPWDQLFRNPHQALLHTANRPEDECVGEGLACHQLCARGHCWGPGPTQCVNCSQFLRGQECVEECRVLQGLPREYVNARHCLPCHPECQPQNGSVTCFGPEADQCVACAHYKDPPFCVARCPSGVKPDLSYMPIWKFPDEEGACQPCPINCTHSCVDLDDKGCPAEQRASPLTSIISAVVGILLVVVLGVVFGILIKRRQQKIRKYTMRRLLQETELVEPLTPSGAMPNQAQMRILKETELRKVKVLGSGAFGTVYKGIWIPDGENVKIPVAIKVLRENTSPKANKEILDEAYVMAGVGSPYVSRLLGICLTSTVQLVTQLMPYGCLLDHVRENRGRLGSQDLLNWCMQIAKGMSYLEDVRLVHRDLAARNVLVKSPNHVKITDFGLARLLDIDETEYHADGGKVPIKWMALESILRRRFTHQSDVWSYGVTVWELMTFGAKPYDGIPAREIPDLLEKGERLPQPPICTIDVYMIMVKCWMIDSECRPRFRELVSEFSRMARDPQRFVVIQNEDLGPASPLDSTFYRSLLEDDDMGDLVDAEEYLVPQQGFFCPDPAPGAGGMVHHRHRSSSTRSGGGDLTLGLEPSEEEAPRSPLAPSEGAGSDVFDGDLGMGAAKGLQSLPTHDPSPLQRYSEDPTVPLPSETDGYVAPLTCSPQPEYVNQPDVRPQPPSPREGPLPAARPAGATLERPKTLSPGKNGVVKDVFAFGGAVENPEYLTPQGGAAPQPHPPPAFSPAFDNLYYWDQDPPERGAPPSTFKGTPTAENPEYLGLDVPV

SMILES	IC50 (MCF-7)	IC50 (HepG2 [1])	IC50 (PC3)	melting point	IC50 (WI-38)	IC50 (VEGFR-2 kinase)	further results
COc1cccc2c1C(=O)c1c(O)c3c(c(O)c1C2=O)C[C@@](O)(C(=O)CO)C[C@@H]3O[C@H]1C[C@H](N)[C@H](O)[C@H](C)O1 [Doxorubicin, reference compound]	12.4 ± 0.74 µM	14.6 ± 1.1 µM	16.3 ± 1.1 µM	–	–	–	–
O=C(Nc1ccc(Oc2nc(Cl)nc3ccccc23)cc1)c1cccc(Cl)c1 [Compound 15c, 3-Chloro-N-(4-((2-chloroquinazolin-4-yl)oxy)phenyl)benzamide]	62.7 ± 5.12 µM	50.4 ± 4.39 µM	56 ± 1.9 µM	229 to 230 °C	236 ± 2.39 µM	0.0652 ± 0.00136 µM	–
O=C(Nc1ccccc1)Nc1ccc(Oc2nc(Cl)nc3ccccc23)cc1 [Compound 14a, 1-(4-((2-Chloroquinazolin-4-yl)oxy)phenyl)-3-phenylurea]	58.3 ± 4.87 µM	41.5 ± 3.6 µM	50.7 ± 4.36 µM	236 to 237 °C	235 ± 2.43 µM	0.0671 ± 0.00107 µM	–
O=C(Nc1ccccc1)Nc1ccc(Oc2ccccc2[N+](=O)[O-])cc1 [Compound 22a, 1-(4-(2-Nitrophenoxy)phenyl)-3-phenylurea]	–	–	–	175 to 176 °C	–	0.124 ± 0.00378 µM	–
CCCCNC(=O)Nc1ccc(Oc2nc(Cl)nc3ccccc23)cc1 [Compound 14b, 1-Butyl-3-(4-((2-chloroquinazolin-4-yl)oxy)phenyl)urea]	–	–	–	214 to 215 °C	–	0.0942 ± 0.00153 µM	–
O=C(Nc1ccccc1)Nc1ccc(Oc2nc3ccccc3nc2Cl)cc1 [Compound 19a, 1-(4-((3-Chloroquinoxalin-2-yl)oxy)phenyl)-3-phenylurea]	–	–	–	248 to 249 °C	–	0.0936 ± 0.00182 µM	–
O=C(Nc1ccc(Oc2ccccc2[N+](=O)[O-])cc1)c1ccccc1 [Compound 23a, N-(4–(2-Nitrophenoxy)phenyl)benzamide]	234 ± 13.2 µM	153 ± 10.8 µM	221 ± 12.9 µM	197 to 198 °C	758.2 ± 5.15 µM	0.0748 ± 0.00167 µM	–
O=C(Nc1ccc(Oc2ccccc2[N+](=O)[O-])cc1)c1cccc(Cl)c1 [Compound 23b, 3-Chloro-N-(4–(2-nitrophenoxy)phenyl)benzamide]	–	–	–	169 to 170 °C	–	0.105 ± 0.0025 µM	–
O=C(Nc1ccc(Oc2nc(Cl)nc3ccccc23)cc1)c1cccnc1 [Compound 15d, N-(4-((2-Chloroquinazolin-4-yl)oxy)phenyl)nicotinamide]	33.4 ± 2.92 µM	24.1 ± 2.12 µM	40.9 ± 3.46 µM	–	221 ± 2.55 µM	0.06 ± 0.00145 µM	IC50 (HER2): 0.253 ± 0.0016 µM; P53 level (P53): 415.027 pg/mL; IC50 (FGFR): 0.381 ± 0.0018 µM; IC50 [2]: 17.4 to 47.1 µM; % Apoptosis Late (HepG2 [3]; HepG2, at IC50, control 0.33): 7.13%; % Apoptosis Early (HepG2 [3]; HepG2, at IC50, control 0.87): 5.33%; % Necrosis (HepG2 [3]; HepG2, at IC50, control 1.17): 2.35%; Total (apoptosis and necrosis) (HepG2 [3]; HepG2, at IC50, control 2.37): 14.81%; fold increase in apoptosis of HepG2 (HepG2 [3]; at IC50, versus control): 10 folds; apoptosis rate of HepG2 (HepG2 [3]; at IC50, control […]): 12.46%; Bcl-2 level (Bcl-2): 1.385 pg/mL; Casp3 level (Caspase-3): 561.427 pg/mL; cell cycle phases in which growth of HepG2 is stopped (HepG2 [4]): both G2/M and pre G1 phases; BAX level (BAX): 395.04 pg/mL
CCCCNC(=O)Nc1ccc(Oc2ccccc2[N+](=O)[O-])cc1 [Compound 22b, 1-Butyl-3-(4-(2-nitrophenoxy)phenyl)urea]	–	–	–	163 to 164 °C	–	0.107 ± 0.002 µM	–
O=C(Nc1ccc(Oc2ccccc2[N+](=O)[O-])cc1)c1cccnc1 [Compound 23c, N-(4–(2-Nitrophenoxy)phenyl)nicotinamide]	–	–	–	160 to 161 °C	–	0.119 ± 0.00316 µM	–
O=C(Nc1ccc(Oc2nc3ccccc3nc2Cl)cc1)c1cccnc1 [Compound 20d, N-(4-((3-Chloroquinoxalin-2-yl)oxy)phenyl)nicotinamide]	246 ± 13.6 µM	221 ± 11.4 µM	> 300 µM	219 to 220 °C	460.7 ± 4.04 µM	0.0696 ± 0.00116 µM	–
CNC(=O)c1cc(Oc2ccc(NC(=O)Nc3ccc(Cl)c(C(F)(F)F)c3)cc2)ccn1 [Sorafenib, reference compound]	14.5 ± 1.68 µM	12.9 ± 0.85 µM	19.4 ± 1.34 µM	–	–	–	–
C#Cc1cccc(Nc2ncnc3cc(OCCOC)c(OCCOC)cc23)c1 [Erlotinib, reference compound]	–	–	–	–	–	–	IC50 (FGFR): 0.034 ± 0.00092 µM
CCCCNC(=O)Nc1ccc(Oc2nc3ccccc3nc2Cl)cc1 [Compound 19b, 1-Butyl-3-(4-((3-chloroquinoxalin-2-yl)oxy)phenyl)urea]	105 ± 7.57 µM	73.4 ± 5.95 µM	84.4 ± 6.68 µM	227 to 228 °C	230 ± 2.51 µM	0.0752 ± 0.00157 µM	–
O=C(Nc1ccc(Oc2nc3ccccc3nc2Cl)cc1)c1ccc(Cl)cc1 [Compound 20b, 4-Chloro-N-(4-((3-chloroquinoxalin-2-yl)oxy)phenyl)benzamide]	–	–	–	264 to 265 °C	–	0.114 ± 0.00283 µM	–
O=C(Nc1ccc(Oc2nc(Cl)nc3ccccc23)cc1)c1ccccc1 [Compound 15a, N-(4-((2-Chloroquinazolin-4-yl)oxy)phenyl)benzamide]	47.1 ± 3.59 µM	34.6 ± 2.82 µM	30.3 ± 2.56 µM	244 to 245 °C	250 ± 2.51 µM	0.0673 ± 0.00154 µM	IC50 [2]: 17.4 to 47.1 µM
O=C(Nc1ccc(Oc2nc(Cl)nc3ccccc23)cc1)c1ccc(Cl)cc1 [Compound 15b, 4-Chloro-N-(4-((2-chloroquinazolin-4-yl)oxy)phenyl)benzamide]	19.9 ± 1.79 µM	17.4 ± 1.54 µM	25.6 ± 2.31 µM	249 to 250 °C	233 ± 2.39 µM	0.0864 ± 0.00176 µM	potency relative to sorafenib potency, MCF-7 (MCF-7; fraction of sorafenib potency): 0.73; IC50 [2]: 17.4 to 47.1 µM; potency relative to sorafenib potency, HepG2 (HepG2 [1]; fraction of sorafenib potency): 0.74; potency relative to sorafenib potency, PC3 (PC3; fraction of sorafenib potency): 0.76
O=C(Nc1ccc(Oc2nc3ccccc3nc2Cl)cc1)c1cccc(Cl)c1 [Compound 20c, 3-Chloro-N-(4-((3-chloroquinoxalin-2-yl)oxy)phenyl)benzamide]	135 ± 9.02 µM	144 ± 9.51 µM	157 ± 10 µM	243 to 244 °C	402.9 ± 3.26 µM	0.0866 ± 0.00175 µM	–
O=C(Nc1ccc(Oc2nc3ccccc3nc2Cl)cc1)c1ccccc1 [Compound 20a, N-(4-((3-Chloroquinoxalin-2-yl)oxy)phenyl)benzamide]	–	–	–	258 to 259 °C	–	0.108 ± 0.00225 µM	–
